PubChem BioAssay AID1845195 (Molecular Pharmacology Branch, DTP, NCI, 2023)
Where “and” joins values, the source holds several entries; their conditions need not be identical. Identical values can stand only once.

Test system: 156681-154-R-J1 tumor spheroid viability
Assay: Anticancer human tumor 156681-154-R-J1 patient-derived melanoma cell line growth inhibition
Conditions: spheroids with HUVEC and MSC; for viability, T/C: stronger effect = lower value
Method in brief: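 Complex spheroids of malignant cells with endothelial cells and mesenchymal stem cells; agents alone or combined, from near clinical Cmax (or 10 microM if unknown) down in half-log steps, 0.25% DMSO final.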

[1] = curve of first compound, second compound 0.003 µM
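Also: spheroids exposed to compounds for 7 days before readout.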
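For viability, T/C in this document: percent of vehicle control viability where 100% = DMSO-treated spheroids.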

With Cn1ncnc1[C@H]1c2n[nH]c(=O)c3cc(F)cc(c23)N[C@@H]1c1ccc(F)cc1 + CC[C@@]1(O)C(=O)OCc2c1cc1n(c2=O)Cc2cc3c(CN(C)C)c(O)ccc3nc2-1 the IC50 [1] was 871 nM, the IC50 (curve of first compound, second compound 0.00949 µM) was 207 nM and the IC50 (curve of first compound, second compound 0.03 µM) was < 9.49 nM. For the same compound, the IC50 (curve of first compound, second compound 0.0949 µM) was < 9.49 nM, the IC50 (curve of first compound, second compound 0.3 µM) was < 9.49 nM and the viability, T/C (second compound 0.003 µM, first compound 0.00949 µM) was 87.1%. The viability, T/C (second compound 0.003 µM, first compound 0.03 µM) was 102%, the viability, T/C (second compound 0.003 µM, first compound 0.0949 µM) was 82.5% and the viability, T/C (second compound 0.003 µM, first compound 0.3 µM) was 77.3%. For the same compound, the viability, T/C (second compound 0.003 µM, first compound 0.949 µM) was 47.8%, the viability, T/C (second compound 0.003 µM, first compound 3 µM) was 8.02% and the viability, T/C (second compound 0.00949 µM, first compound 0.00949 µM) was 58.8%. It also gave a viability, T/C (second compound 0.00949 µM, first compound 0.03 µM) of 65.9%, a viability, T/C (second compound 0.00949 µM, first compound 0.0949 µM) of 48.8% and a viability, T/C (second compound 0.00949 µM, first compound 0.3 µM) of 50%. It also gave a viability, T/C (second compound 0.00949 µM, first compound 0.949 µM) of 21.2%, a viability, T/C (second compound 0.00949 µM, first compound 3 µM) of 9.62% and a viability, T/C (second compound 0.03 µM, first compound 0.00949 µM) of 33.5%. For the same compound, the viability, T/C (second compound 0.03 µM, first compound 0.03 µM) was 28.7%, the viability, T/C (second compound 0.03 µM, first compound 0.0949 µM) was 22.1% and the viability, T/C (second compound 0.03 µM, first compound 0.3 µM) was 18.2%. It also gave a viability, T/C (second compound 0.03 µM, first compound 0.949 µM) of 15.2%, a viability, T/C (second compound 0.03 µM, first compound 3 µM) of 6.77% and a viability, T/C (second compound 0.0949 µM, first compound 0.00949 µM) of 29.5%. It also gave a viability, T/C (second compound 0.0949 µM, first compound 0.03 µM) of 33.4%, a viability, T/C (second compound 0.0949 µM, first compound 0.0949 µM) of 32.7% and a viability, T/C (second compound 0.0949 µM, first compound 0.3 µM) of 31.2%. The viability, T/C (second compound 0.0949 µM, first compound 0.949 µM) was 24.9%, the viability, T/C (second compound 0.0949 µM, first compound 3 µM) was 10.6% and the viability, T/C (second compound 0.3 µM, first compound 0.00949 µM) was 41.8%. For the same compound, the viability, T/C (second compound 0.3 µM, first compound 0.03 µM) was 43.8%, the viability, T/C (second compound 0.3 µM, first compound 0.0949 µM) was 47.8% and the viability, T/C (second compound 0.3 µM, first compound 0.3 µM) was 43.3%. For the same compound, the viability, T/C (second compound 0.3 µM, first compound 0.949 µM) was 44% and the viability, T/C (second compound 0.3 µM, first compound 3 µM) was 24.6%.
For CC1COCCN1c1cc(-c2ccnn2C)c2ccnc(-c3ccn[nH]3)c2n1 (configuration not stated) + COc1cc2c(cc1O)CCNC21CSC2c3c(OC(C)=O)c(C)c4c(c3C(COC1=O)N1C(O)C3Cc5cc(C)c(OC)c(O)c5C(C21)N3C)OCO4, the IC50 (curve of first compound, second compound 30 pM) was 190 nM, the IC50 (curve of first compound, second compound 94.9 pM) was 104 nM and the IC50 (curve of first compound, second compound 0.0003 µM) was < 31.6 nM. The IC50 (curve of first compound, second compound 0.000949 µM) was < 31.6 nM, the IC50 [1] was < 31.6 nM and the viability, T/C (second compound 30 pM, first compound 0.0316 µM) was 96.4%. The viability, T/C (second compound 30 pM, first compound 0.1 µM) was 62.2%, the viability, T/C (second compound 30 pM, first compound 0.316 µM) was 39.9% and the viability, T/C (second compound 30 pM, first compound 1 µM) was 29.9%. It also gave a viability, T/C (second compound 30 pM, first compound 3.16 µM) of 27.3%, a viability, T/C (second compound 30 pM, first compound 10 µM) of 22.6% and a viability, T/C (second compound 94.9 pM, first compound 0.0316 µM) of 78.7%. It also gave a viability, T/C (second compound 94.9 pM, first compound 0.1 µM) of 50.7%, a viability, T/C (second compound 94.9 pM, first compound 0.316 µM) of 33.6% and a viability, T/C (second compound 94.9 pM, first compound 1 µM) of 30%. For the same compound, the viability, T/C (second compound 94.9 pM, first compound 3.16 µM) was 22.1%, the viability, T/C (second compound 94.9 pM, first compound 10 µM) was 21.9% and the viability, T/C (second compound 0.0003 µM, first compound 0.0316 µM) was 49.5%. For the same compound, the viability, T/C (second compound 0.0003 µM, first compound 0.1 µM) was 41.1%, the viability, T/C (second compound 0.0003 µM, first compound 0.316 µM) was 23.9% and the viability, T/C (second compound 0.0003 µM, first compound 1 µM) was 20.6%. It also gave a viability, T/C (second compound 0.0003 µM, first compound 3.16 µM) of 21.3%, a viability, T/C (second compound 0.0003 µM, first compound 10 µM) of 20.1% and a viability, T/C (second compound 0.000949 µM, first compound 0.0316 µM) of 6.51%. It also gave a viability, T/C (second compound 0.000949 µM, first compound 0.1 µM) of 2.7%, a viability, T/C (second compound 0.000949 µM, first compound 0.316 µM) of 4.04% and a viability, T/C (second compound 0.000949 µM, first compound 1 µM) of 3.29%. For the same compound, the viability, T/C (second compound 0.000949 µM, first compound 3.16 µM) was 0.29%, the viability, T/C (second compound 0.000949 µM, first compound 10 µM) was 0.17% and the viability, T/C (second compound 0.003 µM, first compound 0.0316 µM) was 0.23%. For the same compound, the viability, T/C (second compound 0.003 µM, first compound 0.1 µM) was 0.22%, the viability, T/C (second compound 0.003 µM, first compound 0.316 µM) was 0.16% and the viability, T/C (second compound 0.003 µM, first compound 1 µM) was 0.13%. The viability, T/C (second compound 0.003 µM, first compound 3.16 µM) was 0.14% and the viability, T/C (second compound 0.003 µM, first compound 10 µM) was 0.25%.
Cc1cc(C)c(CNC(=O)c2cc(-c3ccc(CN4CCOCC4)cc3)cc3c2cnn3C2CCCC2)c(=O)[nH]1 was tested, and the viability, T/C (compound 0.0316 µM) was 80.8% and 92.1% and 108%, the viability, T/C (compound 0.1 µM) was 101% and 82.4% and 85.2% and the viability, T/C (compound 0.316 µM) was 85.4% and 99.5% and 97.3%. The viability, T/C (compound 1 µM) was 97.1% and 73% and 93.2%, the viability, T/C (compound 3.16 µM) was 90.4% and 89.8% and 92.5% and the viability, T/C (compound 10 µM) was 90% and 87.1% and 91.1%. The IC50 (curve of compound) was > 10000 nM.
